This assay deals with T1, full-length SHP2 (His6-tagged SHP2(2-527)) (Homo sapiens, UniProt Q06124).
T1 construct: His6-tagged SHP2(2-527); His6; made in house; host or cells: E. coli
The assay can be described thus: SHP2 Enzymatic Assay (fluorescence intensity kinetic assay, DiFMUP hydrolysis). The class given is biochemical. In short, it runs like this:
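1 nM His6-SHP2(2-527), activated by 1 μM bis-phosphopeptide, hydrolysed 50 μM DiFMUP in 25 mM HEPES pH 7.4 with 1 mM DTT, 50 mM KCl and 2% DMSO. DiFMU fluorescence (Ex 355/Em 460 nm) was read kinetically for 15 min at ambient temperature.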

These results are taken from patent publication US12187721B2, “Protein tyrosine phosphatase inhibitors” (Array BioPharma Inc., priority 2018, dated 2025).

The structures appear in SMILES notation. Where two headings read alike, the source gives them in different places.

T1 sequence (Q06124 2-527): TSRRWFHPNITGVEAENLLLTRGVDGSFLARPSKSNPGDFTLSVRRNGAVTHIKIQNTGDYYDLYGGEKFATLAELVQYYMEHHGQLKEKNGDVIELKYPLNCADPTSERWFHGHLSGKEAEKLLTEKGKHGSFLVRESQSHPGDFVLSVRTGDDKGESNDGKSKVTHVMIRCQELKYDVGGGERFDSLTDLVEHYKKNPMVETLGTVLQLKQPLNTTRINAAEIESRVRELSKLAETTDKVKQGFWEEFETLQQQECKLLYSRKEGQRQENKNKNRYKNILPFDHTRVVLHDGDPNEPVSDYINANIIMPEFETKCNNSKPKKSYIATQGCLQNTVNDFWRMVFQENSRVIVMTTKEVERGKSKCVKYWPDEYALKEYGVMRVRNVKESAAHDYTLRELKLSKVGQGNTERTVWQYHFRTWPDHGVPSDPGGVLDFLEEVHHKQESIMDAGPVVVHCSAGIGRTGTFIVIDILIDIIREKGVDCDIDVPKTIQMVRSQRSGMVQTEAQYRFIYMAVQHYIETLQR

On to `Nc1nccc(Sc2ccc3nc(N4CCC5(CC4)Cc4c(Cl)cccc4[C@H]5N)cnc3n2)c1Cl` [Example 159, (S)-1′-(6-((2-amino-3-chloropyridin-4-yl)thio)pyrido[2,3-b]pyrazin-2-yl)-4-chloro-1,3-dihydrospiro[indene-2,4′-piperidin]-1-amine], for which the IC50 (commonly the point on the concentration scale where inhibition reaches its midpoint) came to 0.05 µM.
As for `Nc1nccc(Sc2ccc3nc(N4CCC5(CC4)C[C@@H](O)C[C@H]5N)cnc3n2)c1Cl` [Example 160, (2R,4R)-4-amino-8-(6-((2-amino-3-chloropyridin-4-yl)thio)pyrido[2,3-b]pyrazin-2-yl)-8-azaspiro[4.5]decan-2-ol], the IC50 (full-length SHP2 with 1 μM activating peptide, 50 μM DiFMUP, single assay or mean of multiple assays, read-out: Biological Example 1 IC50) stood at 0.06 µM.
In the case of `CNc1nccc(Sc2ccc3nc(N4CCC(C)(N)CC4)cnc3n2)c1Cl` [Example 161, 4-((2-(4-amino-4-methylpiperidin-1-yl)pyrido[2,3-b]pyrazin-6-yl)thio)-3-chloro-N-methylpyridin-2-amine], half-maximal inhibition (IC50) was put at 0.045 µM.
Same read-out and setting: in the case of `N[C@@H]1c2ccccc2CC12CCN(c1cnc3nc(Sc4cccnc4C(F)(F)F)ccc3n1)CC2` [Example 162, (S)-1′-(6-((2-(trifluoromethyl)pyridin-3-yl)thio)pyrido[2,3-b]pyrazin-2-yl)-1,3-dihydrospiro[indene-2,4′-piperidin]-1-amine] it was 0.039 µM; in that of `Nc1nccc(Sc2ccc3nc(N4CC5(Cc6ccccc6[C@@H]5N)C4)cnc3n2)c1Cl` [Example 164, (S)-1-(6-((2-amino-3-chloropyridin-4-yl)thio)pyrido[2,3-b]pyrazin-2-yl)-1′,3′-dihydrospiro[azetidine-3,2′-inden]-1′-amine], 0.203 µM; in that of `Nc1nccc(Sc2ccc3nc(N4CCC5(CC4)c4ccccc4[C@H]5N)cnc3n2)c1Cl` [Example 165, (S)-1′-(6-((2-amino-3-chloropyridin-4-yl)thio)pyrido[2,3-b]pyrazin-2-yl)spiro[bicyclo[4.2.0]octane-7,4′-piperidine]-1(6),2,4-trien-8-amine], 16 µM.
The same measure, in the same setting: in the case of `Nc1nccc(Sc2ccc3nc(N4CCC5(CC4)c4ccccc4[C@@H]5N)cnc3n2)c1Cl` [Example 166, (R)-1′-(6-((2-amino-3-chloropyridin-4-yl)thio)pyrido[2,3-b]pyrazin-2-yl)spiro[bicyclo[4.2.0]octane-7,4′-piperidine]-1(6),2,4-trien-8-amine] it was 3.99 µM; in that of `Nc1nccc(Sc2ccc3nc(N4CCC5(CC4)Cc4ncccc4[C@@H]5N)cnc3n2)c1Cl` [Example 167, (R)-1′-(6-((2-amino-3-chloropyridin-4-yl)thio)pyrido[2,3-b]pyrazin-2-yl)-5,7-dihydrospiro[cyclopenta[b]pyridine-6,4′-piperidin]-5-amine], 0.05 µM.
`Cc1cccc2c1CC1(CCN(c3cnc4nc(Sc5ccnc(N)c5Cl)ccc4n3)CC1)[C@H]2N` [Example 168, (R)-1′-(6-((2-amino-3-chloropyridin-4-yl)thio)pyrido[2,3-b]pyrazin-2-yl)-4-methyl-1,3-dihydrospiro[indene-2,4′-piperidin]-1-amine] returned an IC50 of 0.054 µM.
`Nc1nccc(Sc2ccc3nc(N4CCC5(CC4)Cc4cc(Cl)ccc4[C@@H]5N)cnc3n2)c1Cl` [Example 170, (R)-1′-(6-((2-amino-3-chloropyridin-4-yl)thio)pyrido[2,3-b]pyrazin-2-yl)-5-chloro-1,3-dihydrospiro[indene-2,4′-piperidin]-1-amine] yielded an IC50 of 0.062 µM.
Same read-out and setting: in the case of `COc1nc(N)cc(Sc2ccc3nc(N4CCC5(CC4)Cc4ccccc4[C@H]5N)cnc3n2)c1Cl` [Example 171, (S)-1′-(6-((6-amino-3-chloro-2-methoxypyridin-4-yl)thio)pyrido[2,3-b]pyrazin-2-yl)-1,3-dihydrospiro[indene-2,4′-piperidin]-1-amine] it was 0.056 µM; in that of `N#Cc1ccc2ncc(Sc3ccc4nc(N5CCC6(CC5)Cc5ccccc5[C@H]6N)cnc4n3)n2c1` [Example 172, (S)-3-((2-(1-amino-1,3-dihydrospiro[indene-2,4′-piperidin]-1′-yl)pyrido[2,3-b]pyrazin-6-yl)thio)imidazo[1,2-a]pyridine-6-carbonitrile], 0.112 µM.
Same read-out and setting: in the case of `CCCC1(N)CCN(c2cnc3nc(Sc4ccnc(N)c4Cl)ccc3n2)CC1` [Example 173, 4-((2-(4-amino-4-propylpiperidin-1-yl)pyrido[2,3-b]pyrazin-6-yl)thio)-3-chloropyridin-2-amine] it was 0.237 µM; in that of `Cc1nccc(Sc2ccc3nc(N4CCC5(CC4)CO[C@@H](C)[C@H]5N)cnc3n2)c1C` [Example 174, (3S,4S)-8-(6-((2,3-dimethylpyridin-4-yl)thio)pyrido[2,3-b]pyrazin-2-yl)-3-methyl-2-oxa-8-azaspiro[4.5]decan-4-amine], 0.335 µM.
Same read-out and setting: in the case of `C[C@@H]1OCC2(CCN(c3cnc4nc(Sc5ccnc(N)c5F)ccc4n3)CC2)[C@@H]1N` [Example 175, (3S,4S)-8-(6-((2-amino-3-fluoropyridin-4-yl)thio)pyrido[2,3-b]pyrazin-2-yl)-3-methyl-2-oxa-8-azaspiro[4.5]decan-4-amine] it was 1.23 µM; in that of `C[C@@H]1OCC2(CCN(c3cnc4nc(Sc5ccc(N)nc5C(F)(F)F)ccc4n3)CC2)[C@@H]1N` [Example 176, (3S,4S)-8-(6-((6-amino-2-(trifluoromethyl)pyridin-3-yl)thio)pyrido[2,3-b]pyrazin-2-yl)-3-methyl-2-oxa-8-azaspiro[4.5]decan-4-amine], 0.109 µM.
In turn, `C[C@@H]1OCC2(CCN(c3cnc4nc(Sc5ccnc(Cl)c5Cl)ccc4n3)CC2)[C@@H]1N` [Example 177, (3S,4S)-8-(6-((2,3-dichloropyridin-4-yl)thio)pyrido[2,3-b]pyrazin-2-yl)-3-methyl-2-oxa-8-azaspiro[4.5]decan-4-amine] returned an IC50 of 0.22 µM.
Still for that read-out and setting: the result for `Cc1ccc2c(c1)[C@H](N)C1(CCN(c3cnc4nc(Sc5ccnc(N)c5Cl)ccc4n3)CC1)C2` [Example 179, (R)-1′-(6-((2-amino-3-chloropyridin-4-yl)thio)pyrido[2,3-b]pyrazin-2-yl)-6-methyl-1,3-dihydrospiro[indene-2,4′-piperidin]-1-amine] reads 0.08 µM.
`Nc1nccc(Sc2ccc3nc(N4CCC(N)(Cc5ccccn5)CC4)cnc3n2)c1Cl` [Example 180, 4-((2-(4-amino-4-(pyridin-2-ylmethyl)piperidin-1-yl)pyrido[2,3-b]pyrazin-6-yl)thio)-3-chloropyridin-2-amine]: it took 0.274 µM to reach half-maximal inhibition (IC50).
Same read-out and setting: in the case of `Nc1nccc(Sc2ccc3nc(N4CCC(N)(Cc5ccccc5)CC4)cnc3n2)c1Cl` [Example 181, 4-((2-(4-amino-4-benzylpiperidin-1-yl)pyrido[2,3-b]pyrazin-6-yl)thio)-3-chloropyridin-2-amine] it was 0.075 µM; in that of `COCCC1(N)CCN(c2cnc3nc(Sc4ccnc(N)c4Cl)ccc3n2)CC1` [Example 182, 4-((2-(4-amino-4-(2-methoxyethyl)piperidin-1-yl)pyrido[2,3-b]pyrazin-6-yl)thio)-3-chloropyridin-2-amine], 0.08 µM.
On the same count and under the same terms, the result for `COCCNc1nccc(Sc2ccc3nc(N4CCC5(CC4)CO[C@@H](C)[C@H]5N)cnc3n2)c1Cl` [Example 183, (3S,4S)-8-(6-((3-chloro-2-((2-methoxyethyl)amino)pyridin-4-yl)thio)pyrido[2,3-b]pyrazin-2-yl)-3-methyl-2-oxa-8-azaspiro[4.5]decan-4-amine] reads 0.268 µM; that for `C[C@@H]1OCC2(CCN(c3cnc4nc(Sc5ccnc(NC6CC6)c5Cl)ccc4n3)CC2)[C@@H]1N` [Example 184, (3S,4S)-8-(6-((3-chloro-2-(cyclopropylamino)pyridin-4-yl)thio)pyrido[2,3-b]pyrazin-2-yl)-3-methyl-2-oxa-8-azaspiro[4.5]decan-4-amine], 0.413 µM.
Same read-out and setting: in the case of `C[C@@H]1OCC2(CCN(c3cnc4nc(Sc5ccncc5F)ccc4n3)CC2)[C@@H]1N` [Example 186, (3S,4S)-8-(6-((3-fluoropyridin-4-yl)thio)pyrido[2,3-b]pyrazin-2-yl)-3-methyl-2-oxa-8-azaspiro[4.5]decan-4-amine] it was 2.31 µM; in that of `C[C@@H]1OCC2(CCN(c3cnc4nc(Sc5ccncc5Cl)ccc4n3)CC2)[C@@H]1N` [Example 187, (3S,4S)-8-(6-((3-chloropyridin-4-yl)thio)pyrido[2,3-b]pyrazin-2-yl)-3-methyl-2-oxa-8-azaspiro[4.5]decan-4-amine], 0.261 µM.
The compound `C[C@@H]1OCC2(CCN(c3cnc4nc(Sc5ccncc5C(F)(F)F)ccc4n3)CC2)[C@@H]1N` [Example 188, (3S,4S)-3-methyl-8-(6-((3-(trifluoromethyl)pyridin-4-yl)thio)pyrido[2,3-b]pyrazin-2-yl)-2-oxa-8-azaspiro[4.5]decan-4-amine] registered an IC50 of 0.151 µM.
`C[C@@H]1OCC2(CCN(c3cnc4nc(Sc5ccnc(C(F)(F)F)c5)ccc4n3)CC2)[C@@H]1N` [Example 190, (3S,4S)-3-methyl-8-(6-((2-(trifluoromethyl)pyridin-4-yl)thio)pyrido[2,3-b]pyrazin-2-yl)-2-oxa-8-azaspiro[4.5]decan-4-amine] showed an IC50 of 3.65 µM.
Same read-out and setting: in the case of `C[C@@H]1OCC2(CCN(c3cnc4nc(Sc5ccnc6c5ccn6C)ccc4n3)CC2)[C@@H]1N` [Example 191, (3S,4S)-3-methyl-8-(6-((1-methyl-1H-pyrrolo[2,3-b]pyridin-4-yl)thio)pyrido[2,3-b]pyrazin-2-yl)-2-oxa-8-azaspiro[4.5]decan-4-amine] it was 0.134 µM; in that of `C[C@@H]1OCC2(CCN(c3cnc4nc(Sc5c(Cl)cnc6[nH]ccc56)ccc4n3)CC2)[C@@H]1N` [Example 192, (3S,4S)-8-(6-((5-chloro-1H-pyrrolo[2,3-b]pyridin-4-yl)thio)pyrido[2,3-b]pyrazin-2-yl)-3-methyl-2-oxa-8-azaspiro[4.5]decan-4-amine], 0.045 µM.
